“Also recorded” adds a separate entry of the source. Where two headings read alike, the source gives them in different places.
Tests used:
[1] = system: WNT target genes in IMR90-1 hiPSCs; assay: Microarray and qPCR gene expression of WNT target genes; assay type: cell-based, human; settings: 12, 24 and 72 h after treatment
Description: IMR90-1 iPSCs were cultured in cardiac differentiation medium containing serum. On Day 3, cells were treated with 10 μM KY02111 or 0.1% DMSO for 0, 12, or 24 h. Non-treated cells (0 h), cells treated with KY02111 for 12 h (KY12hr) or 24 h (KY24hr), and cells treated with 0.1% DMSO for 12 h (DMSO12hr) or 24 h (DMSO24hr) were used for microarray analysis. Total RNA was prepared using the RNeasy Mini Kit (Qiagen), according to the manufacturer's instructions. Synthesis of cDNA, in vitro transcription and biotin labeling cRNA, and hybridization to the Human Gene 1.0 ST array (Affymetrix) were performed according to Affymetrix protocols. Hybridized arrays were scanned using an Affymetrix GeneChip Scanner. Data normalization and further analysis were performed with GeneSpring GX (Agilent Technologies). Proportions of treated cells expressing genes relative to control (KY02111/DMSO) were calculated for each time point. […] The microarray data have been submitted to the Gene Expression Omnibus (GEO) public database at NCBI (GEO accession number, GSE33622).
Total RNA was isolated with an RNeasy Mini Kit (QIAGEN). Genomic DNA was completely digested with DNase I (Invitrogen). Total RNA (0.5 μg) was subjected to cDNA synthesis using the SuperScript III Reverse Transcriptase (Invitrogen). qRT-PCR was performed in triplicate, using SYBER GREEN PCR Master Mix on a 7500 Real Time PCR System (Applied Biosystems). The cycling conditions were as follows: 10 min at 95° C.; 40 cycles, each consisting of 15 s at 95° C.; 1 min at 60° C. Total RNA from human adult heart tissue (BioChain) was used to evaluate the expression levels of cardiac marker genes for cardiomyocytes derived from hPSCs. All values were normalized with respect to GAPDH expression level and expressed relative to the corresponding values in human adult hearts (100%).

[2] = system: human αMHC promoter-driven EGFP transgenic monkey ESCs; assay: αMHC promoter-driven GFP expression, cardiac differentiation of transgenic monkey ESCs (HCA); assay type: cell-based; settings: for intensity of the GFP signal driven by αMHC promoter: comparison of chemical and proteinaceous WNT inhibitors, FIG. 3b,c
Excerpt: To generate human αMHC promoter-driven EGFP-expressing monkey ESCs, the 918 bp upstream from the transcriptional starting site and the third exon just before the open reading frame were amplified from genomic DNAs of KhES-1 hESCs by PCR, using the following primer sets —forward primer, 5′- […]-3′ (SEQ ID No: 37); reverse primer, 5′- (including a SalI linker) 22 […]-3′ (SEQ ID No: 38)—and then ligated into pGEM-T Easy Vector (Promega). The HindIII/SalI fragment from the cloning vector was connected with pEGFP-1 (Clontech). The linearized αMHC-EFGP vector was introduced into CMK6.4 monkey ESCs by electroporation. Transgenic ESC clones were selectively grown with G418 (Sigma-Aldrich). The expression of EGEP was confirmed in beating colonies.
The confluent (4-5 d after passage) αMHC-GFP transgenic monkey ESCs were dissociated enzymatically by CTK solution (Non-patent literature 1), and the ESC clumps (40-100 μm in diameter) were obtained using 40 and 100 μm Cell Strainers (BD Biosciences). The ESC clumps (approximately 5.0×10^3 cells well^−1) were transferred onto 96-well plates (Greiner Bio-One, 96-well black plate, Cat. No. 655090) and incubated in cardiac differentiation medium as described in (4) below. During Days 6-14 of cardiac differentiation, 9600 compounds from the chemical library (dissolved in DMSO) were screened using 96-well plates. Sixteen and 80 wells were used for the control (0.1% DMSO) and chemical compounds (1 per well), respectively. Final concentration of the each compound was approximately 1-5 μM. Medium containing small molecules was changed every 4 d. On Day 14, GFP fluorescence of ESCs was measured by whole-plate scanning, using the Metamorph imaging system (Molecular Device). Metamorph software was used to analyze the GFP fluorescence data and calculate Fluorescence Area, Total Fluorescence Intensity, Average Fluorescence Intensity, and number of GFP-positive colonies for each well. Hit compounds were determined by the following criteria: Average Fluorescence Intensity of a well with the compound was >6 SD greater than Average Fluorescence Intensity of the control (mean of 16 wells), and Total Fluorescence Intensity for the compound was >0 SD greater than the control; or Total Fluorescence Intensity of the compound was >4 SD greater than the control, and Average Fluorescence Intensity of the compound was >0 SD greater than the control. One hundred and twenty compounds passed these criteria and were retested using 8 wells for each compound.
Confluent hESCs and hiPSCs were gently detached with CTK solution and transferred into Petri dishes (BD Biosciences) with Primate ES Cell Culture Medium (ReproCELL, Japan). Cells were held in suspension culture for 8-24 h to form aggregates. The sizes of hPSC aggregates (0.3-1 mm in diameter) are important for efficient differentiation. Following suspension culture, cell aggregates were attached to culture dishes (3-10×10^5 cells cm^−2) in cardiac differentiation medium: IMDM (Sigma), containing 20% FBS (Gibco), 1% MEM non-essential amino acid solution (Sigma), 1% Penicillin-Streptomycin (Gibco), 2 mM L-glutamine (Sigma), 0.001% 2-Mercaptoethanol (Gibco), and 0.005N NaOH, with 10 ng ml^−1 BMP4 (R&D Systems). The medium was changed to cardiac differentiation medium with 10 μM KY02111 and/or other WNT inhibitors added on Day 3 (hiPSC lines) or Day 4 (human or monkey ESC lines); XAV939 (Wako, Japan), IWP-2 (Santa Cruz Biotechnology), IWR-1 (Merck4Bioscience), IGFBP4 (R&D Systems), Dkk1 (R&D Systems) and the mixture of bFGF (R&D Systems), BMP4 (R&D Systems), VEGF (R&D Systems), DKK1 (R&D Systems), and Activin A (R&D Systems) (Non-patent literature 16). Medium was changed every 2-3 d. KY02111 and other WNT inhibitors were added until Day 9 for hiPSC lines and the monkey ESC line, or Day 14 for hESC lines. […]

[3] = system: human αMHC promoter-driven EGFP transgenic monkey ESCs; assay: as above; assay type: cell-based
KY-CM colony = assay: QT interval prolongation assay on microelectrode array; assay type: cell-based, human; settings: astemizole 300 pM to 30 μM, increased every 4 min
Description: Microelectrode array (MEA) dishes (Multi Channel Systems, Reutlingen, Germany) were coated with ReproCoat (RCESD006, ReproCELL, Japan) in 5% CO2 for 1 h at 37° C. After coating, KY02111-induced cardiomyocytes at Day 30 were transferred into 1 ml of Cardiomyocyte Culture Medium (RCESD006, ReproCELL, Japan) on the MAE dish. Using a pipet tip or glass bar, the cardiomyocytes were gently moved onto the electrode and cultured overnight to attach to the MEA dishes. On the following day, the medium was changed into Cardiomyocyte Test Medium (RCESD003, ReproCELL, Japan). After confirming the presence of beating cardiomyocytes, the MEA dishes were attached to an MEA amplifier (Multi Channel Systems, Reutlingen, Germany), and electrocardiogram-like waves were recorded. After 2 min of recording, 300 pM astemizole (Sigma) or 0.1% DMSO were added, and the concentrations of astemizole (300 pM to 30 μM) were increased every 4 min. ECG-like waves were recorded after 2 min of each astemizole treatment. Beating rate, Na^+ amplitude, K^+ amplitude, and Na^+—K^+ interval were analyzed by LabChart™ software v7 (ADInstruments, Adelaide, Australia).

[4] = system: KY02111-induced cardiomyocytes (KY-CMs); settings: depolarizing pulses -40 to +40 mV for 500 msec
Description: Cells were isolated from beating hPSC-derived cardiomyocytes, using protease solution. The dissociated cells were cultured for 3-7 d on gelatin-coated cover glasses. Patch-clamp recordings were performed in a temperature-controlled room at approximately 25° C. Data from the whole cell patch-clamp configuration were recorded from spontaneously beating cells, using a HEKA EPC10 amplifier (HEKA Instruments Inc.). An external solution containing 140 mM NaCl, 5 mM KCl, 10 mM HEPES, 2 mM CaCl2, 1 mM MgCl2, and 10 mM glucose was adjusted to pH 7.2 with NaOH. A pipette solution containing 80 mM K-aspartate, 50 mM KCl, 1 mM MgCl2, 10 mM EGTA, 3 mM ATP-Mg, and 10 mM HEPES was adjusted to pH 7.2 with KOH. […] The inhibitors were obtained from Sigma-Aldrich. […] The current-voltage relationship was obtained by holding the membrane potential at −40 to −60 mV, and delivering a depolarizing pulse for 500 ms in a stepwise manner, in increments from −60 to 60 mV for INa, −40 to 40 mV for ICaL, −40 to 40 mV for IKs and IKr, and −50 to −140 mV for Ih.

## O=C1Nc2cc(Br)ccc2/C1=C1/Nc2ccccc2/C1=N\O [BIO]
[1]
  expression levels of WNT target genes by qPCR: tended to augment

## O=C(Nc1cccc2cccnc12)c1ccc(N2C(=O)[C@@H]3[C@H](C2=O)[C@@H]2C=C[C@H]3C2)cc1 [IWR-1, reference compound]
[2]
  intensity of the GFP signal driven by αMHC promoter: increased

## COc1ccc(CCCC(=O)Nc2nc3ccc(Cl)cc3s2)cc1OC [KY02114, 2-(4-(3,4-dimethoxyphenyl)butanamide)-6-chlorobenzothiazole]
[2]; DMSO=100%
  GFP expression level induced by N11474 and related compounds (structure-activity): induced the highest levels

## COc1ccc2nc(NC(=O)Cc3ccc(OC)c(OC)c3)sc2c1 [N11474]
[2]; chemical screening, treatment Days 6-14, P=0.015
  GFP fluorescence of ESCs compared to DMSO: significantly increased; also recorded: significantly enhanced
[3]; treatment after Day 8 (Days 8-12 or Days 10-14)
  αMHC promoter-driven EGFP signal on Day 14: less effective
[3]; treatment on Days 0-4
  αMHC promoter-driven EGFP signal on Day 14: completely repressed GFP expression; also recorded: completely suppressed GFP expression
[3]; treatment on Days 4-8
  αMHC promoter-driven EGFP signal on Day 14: maximized the increase in GFP expression; also recorded: most effective
[3]; treatment on Days 6-10
  αMHC promoter-driven EGFP signal on Day 14: similarly effective to the screening protocol

## COc1ccc(CCN2CCC(Nc3nc4ccccc4n3Cc3ccc(F)cc3)CC2)cc1 [astemizole]
KY-CM colony
  Na+-K+ interval of ECG-like waves: prolonged

## CCS(=O)(=O)N(C)[C@H]1c2cc(C#N)ccc2OC(C)(C)[C@@H]1O [chromanol293B]
[4]
  KCNQ1 current (IKs): clearly detected
[4]; listed as Chromanol293B
  KCNQ1 current (IKs): suppressed

B1: IGFBP4: proteinaceous WNT inhibitor (protein, UniProt P22692 22-258, looked up)
Insulin-like growth …: DEAIHCPPCSEEKLARCRPPVGCEELVREPGCGCCATCALGLGMPCGVYTPRCGSGLRCYPPRGVEKPLHTLMHGQGVCMELAEIEAIQESLQPSDKDEGDHPNNSFSPCSAHDRRCLQKHFAKIRDRSTSGGKMKVNGAPREDARPVPQGSCQSELHRALERLAASQSRTHEDLYIIPIPNCDRNGNFHPKQCHPALDGQRGKCWCVDRKTGVKLPGGLEPKGELDCHQLADSFRE
[2]
  intensity of the GFP signal driven by αMHC promoter: increased

B2: DKK1: proteinaceous WNT inhibitor (protein, UniProt O94907 32-266, looked up)
Dickkopf-related protein 1: TLNSVLNSNAIKNLPPPLGGAAGHPGSAVSAAPGILYPGGNKYQTIDNYQPYPCAEDEECGTDEYCASPTRGGDAGVQICLACRKRRKRCMRHAMCCPGNYCKNGICVSSDQNHFRGEIEETITESFGNDHSTLDGYSRRTTLSSKMYHTKGQEGSVCLRSSDCASGLCCARHFWSKICKPVLKEGQVCTKHRRKGSHGLEIFQRCYCGEGLSCRIQKDHHQASNSSRLHTCQRH
[2]
  intensity of the GFP signal driven by αMHC promoter: increased
